This is an account of results in patent US12486290B2, “Isoindolinone and indazole compounds for the degradation of EGFR” (C4 THERAPEUTICS, INC., priority 2019, dated 2025).

The assay deals with T1, EGFR T790M/L858R (NCI-H1975 cells) (Homo sapiens, UniProt P00533, L858R/T790M).
T1 construct: NCI-H1975 (harboring EGFR heterozygous T790M/L858R mutations); host or cells: NCI-H1975
Kind of assay: EGFR (L858R) degradation analysis, Total EGFR (L858R) HTRF, NCI-H1975 cells. In kind it is cell-based. To be noted: 6 hours. From the text:
NCI-H1975 (harboring EGFR heterozygous T790M/L858R mutations) and NCI-H3255 (harboring EGFR heterozygous L858R mutation) were purchased from ATCC and NCI, respectively. NCI-H1975+CS (harboring EGFR heterozygous T/790M/L858R/C797S mutations) was generated using CRISPR technology to introduce the additional C797S mutation by Horizon Discovery. RPMI 1640 no-phenol red medium and fetal bovine serum (FBS) were purchased from Gibco (Grand Island, NY, USA). Cell culture flasks and 384-well microplates were acquired from VWR (Radnor, PA, USA). Total EGFR (L858R) HTRF assay kits were purchased from Cisbio (Bedford, MA, USA).
Degradation of EGFR protein containing L858R mutation was determined based on quantification of FRET signal using Total EGFR (L858R) HTRF assay kit. Test compounds were added to the 384-well plate from a top concentration of 10 μM with 11 points, half log titration in duplicates. NCI-H1975, NCI-H1975+CS or NCI-H3255 cells were added into 384-well plates at a cell density of 10000, 10000 or 1000 cells per well, respectively. The plates were kept at 37° C. with 5% CO2 for 6 hours. Cells treated in the absence of the test compound were the negative control. Positive control was set by wells containing all reagents but no cells. FRET signal was acquired on EnVision™ Multilabel Reader (PerkinElmer, Santa Clara, CA, USA).

Structures are written as SMILES.

T1 sequence (P00533 25-1210 T790M/L858R): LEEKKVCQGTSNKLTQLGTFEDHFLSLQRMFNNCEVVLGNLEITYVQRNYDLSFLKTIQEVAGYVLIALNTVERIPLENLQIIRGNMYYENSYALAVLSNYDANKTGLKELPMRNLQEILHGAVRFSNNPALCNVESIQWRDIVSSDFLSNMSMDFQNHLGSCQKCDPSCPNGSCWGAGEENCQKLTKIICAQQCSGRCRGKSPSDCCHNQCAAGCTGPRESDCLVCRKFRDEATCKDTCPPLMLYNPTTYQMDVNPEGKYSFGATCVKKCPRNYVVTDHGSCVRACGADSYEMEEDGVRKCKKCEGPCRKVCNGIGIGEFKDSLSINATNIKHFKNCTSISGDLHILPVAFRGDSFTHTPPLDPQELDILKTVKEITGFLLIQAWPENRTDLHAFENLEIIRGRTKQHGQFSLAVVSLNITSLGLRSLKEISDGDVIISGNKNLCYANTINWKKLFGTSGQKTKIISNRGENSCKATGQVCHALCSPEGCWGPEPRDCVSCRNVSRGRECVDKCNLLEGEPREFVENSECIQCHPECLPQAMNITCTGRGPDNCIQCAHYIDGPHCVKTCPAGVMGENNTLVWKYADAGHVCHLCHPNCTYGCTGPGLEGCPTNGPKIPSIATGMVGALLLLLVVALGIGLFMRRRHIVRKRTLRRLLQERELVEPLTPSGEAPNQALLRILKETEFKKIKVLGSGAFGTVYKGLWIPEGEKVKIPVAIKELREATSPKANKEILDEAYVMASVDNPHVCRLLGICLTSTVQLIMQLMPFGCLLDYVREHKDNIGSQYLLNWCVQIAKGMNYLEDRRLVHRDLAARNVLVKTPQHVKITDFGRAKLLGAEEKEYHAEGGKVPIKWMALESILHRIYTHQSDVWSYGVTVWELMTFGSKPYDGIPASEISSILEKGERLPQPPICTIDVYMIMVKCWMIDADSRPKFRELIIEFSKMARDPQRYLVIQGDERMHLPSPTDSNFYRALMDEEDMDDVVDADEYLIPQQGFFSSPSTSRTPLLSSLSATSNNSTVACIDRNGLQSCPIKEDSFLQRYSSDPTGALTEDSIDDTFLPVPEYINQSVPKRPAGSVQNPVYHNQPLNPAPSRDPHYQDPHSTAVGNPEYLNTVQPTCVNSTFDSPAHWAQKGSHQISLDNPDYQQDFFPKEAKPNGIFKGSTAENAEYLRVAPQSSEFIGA

In general, DC50 refers to the concentration at which degradation of the target reaches its halfway point. In the case of `O=C1CC[C@@H](Nc2ccc(C3CCN(CC(=O)N4CCC(c5ccc(-c6cc(F)c7c(c6)C(=O)N(C(C(=O)Nc6nccs6)c6ncn8c6CCC8)C7)cc5)CC4)CC3)cc2)C(=O)N1` (stereo partly drawn) [Compound 23, 2-(6,7-dihydro-5H-pyrrolo[1,2-c]imidazol-1-yl)-2-(6-(4-(1-(2-(4-(4-(((R)-2,6-dioxopiperidin-3-yl)amino)phenyl)piperidin-1-yl)acetyl)piperidin-4-yl)phenyl)-4-fluoro-1-oxoisoindolin-2-yl)-N-(thiazol-2-yl)acetamide], the half-maximal degradation concentration (DC50) came to 0.033 µM.
As for `O=C1CCC(Nc2ccc(C3CCN(C(=O)CN4CCC(c5ccc(-c6cc(F)c7c(c6)C(=O)N(C(C(=O)Nc6nccs6)c6ncn8c6CCC8)C7)cc5)CC4)CC3)cc2)C(=O)N1` (stereo not drawn) [Compound 26, 2-(6,7-dihydro-5H-pyrrolo[1,2-c]imidazol-1-yl)-2-[6-[4-[1-[2-[4-[4-[(2,6-dioxo-3-piperidyl)amino]phenyl]-1-piperidyl]-2-oxo-ethyl]-4-piperidyl]phenyl]-4-fluoro-1-oxo-isoindolin-2-yl]-N-thiazol-2-yl-acetamide], the DC50 came to 0.026 µM.
`O=C1CCC(Nc2ccc(C3CCN(CC(=O)N4CCC(Oc5ccc(-c6cc(F)c7c(c6)C(=O)N(C(C(=O)Nc6nccs6)c6ncn8c6CCC8)C7)cc5)CC4)CC3)cc2)C(=O)N1` (stereo not drawn) [Compound 31, 2-(6,7-dihydro-5H-pyrrolo[1,2-c]imidazol-1-yl)-2-[6-[4-[[1-[2-[4-[4-[(2,6-dioxo-3-piperidyl)amino]phenyl]-1-piperidyl]acetyl]-4-piperidyl]oxy]phenyl]-4-fluoro-1-oxo-isoindolin-2-yl]-N-thiazol-2-yl-acetamide] displayed a DC50 of 0.032 µM.
On the same count and under the same terms, for `O=C1CCC(Nc2ccc(C3CCN(CC(=O)N4CCC(Oc5ccc(-c6cc(F)c7c(c6)C(=O)N(C(C(=O)Nc6nccs6)c6ncn8c6CCC8)C7)cc5)CC4)CC3)nc2)C(=O)N1` (stereo not drawn) [Compound 36, 2-(6,7-dihydro-5H-pyrrolo[1,2-c]imidazol-1-yl)-2-(6-(4-((1-(2-(4-(5-((2,6-dioxopiperidin-3-yl)amino)pyridin-2-yl)piperidin-1-yl)acetyl)piperidin-4-yl)oxy)phenyl)-4-fluoro-1-oxoisoindolin-2-yl)-N-(thiazol-2-yl)acetamide] the value was 0.031 µM.
The compound `O=C1NC(=O)C2(Nc3ccc(C4CCN(CC(=O)N5CCC(Oc6ccc(-c7cc(F)c8c(c7)C(=O)N(C(C(=O)Nc7nccs7)c7ncn9c7CCC9)C8)cc6)CC5)CC4)cc3)CC1C2` (stereo not drawn) [Compound 38, 2-(6,7-dihydro-5H-pyrrolo[1,2-c]imidazol-1-yl)-2-(6-(4-((1-(2-(4-(4-((2,4-dioxo-3-azabicyclo[3.1.1]heptan-1-yl)amino)phenyl)piperidin-1-yl)acetyl)piperidin-4-yl)oxy)phenyl)-4-fluoro-1-oxoisoindolin-2-yl)-N-(thiazol-2-yl)acetamide] came in with a DC50 of 0.052 µM.
The same measure, in the same setting: then `O=C1CC[C@H](Nc2ccc(C3CCN(CC(=O)N4CCC(Oc5ccc(-c6cc(F)c7c(c6)C(=O)N(C(C(=O)Nc6nccs6)c6ncn8c6CCC8)C7)cc5)CC4)CC3)c(F)c2)C(=O)N1` (stereo partly drawn) [Compound 39, 2-(6,7-dihydro-5H-pyrrolo[1,2-c]imidazol-1-yl)-2-(6-(4-((1-(2-(4-(4-(((S)-2,6-dioxopiperidin-3-yl)amino)-2-fluorophenyl)piperidin-1-yl)acetyl)piperidin-4-yl)oxy)phenyl)-4-fluoro-1-oxoisoindolin-2-yl)-N-(thiazol-2-yl)acetamide], with 0.088 µM.
`O=C1CC[C@H](Nc2ccc(C3CCN(CC(=O)N4CC[C@@H](Oc5ccc(-c6cc(F)c7c(c6)C(=O)N(C(C(=O)Nc6nccs6)c6ncn8c6CCC8)C7)cc5)C4)CC3)cc2)C(=O)N1` (stereo partly drawn) [Compound 41, 2-(6,7-dihydro-5H-pyrrolo[1,2-c]imidazol-1-yl)-2-[6-[4-[(3R)-1-[2-[4-[4-[[(3S)-2,6-dioxo-3-piperidyl]amino]phenyl]-1-piperidyl]acetyl]pyrrolidin-3-yl]oxyphenyl]-4-fluoro-1-oxo-isoindolin-2-yl]-N-thiazol-2-yl-acetamide] gave a half-maximal degradation concentration (DC50) of 0.026 µM.
The compound `O=C1CC[C@H](Nc2ccc(C3CCN(CC(=O)N4CC[C@H](Oc5ccc(-c6cc(F)c7c(c6)C(=O)N(C(C(=O)Nc6nccs6)c6ncn8c6CCC8)C7)cc5)C4)CC3)cc2)C(=O)N1` (stereo partly drawn) [Compound 42, 2-(6,7-dihydro-5H-pyrrolo[1,2-c]imidazol-1-yl)-2-[6-[4-[(3S)-1-[2-[4-[4-[[(3S)-2,6-dioxo-3-piperidyl]amino]phenyl]-1-piperidyl]acetyl]pyrrolidin-3-yl]oxyphenyl]-4-fluoro-1-oxo-isoindolin-2-yl]-N-thiazol-2-yl-acetamide] showed a DC50 of 0.02 µM.
`Cn1nc(N2CCC(=O)NC2=O)c2ccc(C3CCN(CC(=O)N4CC5(C4)CN(c4ccc(-c6cc(F)c7c(c6)C(=O)N(C(C(=O)Nc6nccs6)c6ncn8c6CCC8)C7)cc4)C5)CC3(F)F)cc21` (stereo not drawn) [Compound 50, 2-(6,7-dihydro-5H-pyrrolo[1,2-c]imidazol-1-yl)-2-[6-[4-[2-[2-[4-[3-(2,4-dioxohexahydropyrimidin-1-yl)-1-methyl-indazol-6-yl]-3,3-difluoro-1-piperidyl]acetyl]-2,6-diazaspiro[3.3]heptan-6-yl]phenyl]-4-fluoro-1-oxo-isoindolin-2-yl]-N-thiazol-2-yl-acetamide] registered a 50% degradation concentration (DC50) of 0.01 µM.
As for `Cn1nc(N2CCC(=O)NC2=O)c2ccc(C3CCN(CC(=O)N4CC5(C4)CN(c4ccc(-c6cc(F)c7c(c6)C(=O)N(C(C(=O)Nc6ccccn6)c6ncn8c6CCC8)C7)cc4)C5)CC3)cc21` (stereo not drawn) [Compound 54, 2-(6,7-dihydro-5H-pyrrolo[1,2-c]imidazol-1-yl)-2-[6-[4-[2-[2-[4-[3-(2,4-dioxohexahydropyrimidin-1-yl)-1-methyl-indazol-6-yl]-1-piperidyl]acetyl]-2,6-diazaspiro[3.3]heptan-6-yl]phenyl]-4-fluoro-1-oxo-isoindolin-2-yl]-N-(2-pyridyl)acetamide], it took 0.016 µM to reach half-maximal degradation (DC50).
As to `Cn1nc(N2CCC(=O)NC2=O)c2ccc(C3CCN(CC(=O)N4CC5(C4)CN(c4ccc(-c6cc(F)c7c(c6)C(=O)N(C(C(=O)Nc6ccccn6)c6ncn8c6CCC8)C7)cc4)C5)CC3(F)F)cc21` (stereo not drawn) [Compound 55, 2-(6,7-dihydro-5H-pyrrolo[1,2-c]imidazol-1-yl)-2-[6-[4-[2-[2-[4-[3-(2,4-dioxohexahydropyrimidin-1-yl)-1-methyl-indazol-6-yl]-3,3-difluoro-1-piperidyl]acetyl]-2,6-diazaspiro[3.3]heptan-6-yl]phenyl]-4-fluoro-1-oxo-isoindolin-2-yl]-N-(2-pyridyl)acetamide], half-maximal degradation (DC50) was put at 0.011 µM.
`O=C1CCC(Nc2ccc(C3CCN(CC(=O)N4CCN(c5ccc(-c6cc(F)c7cn(C(C(=O)Nc8nccs8)c8ncn9c8CCC9)nc7c6)cn5)CC4)CC3)c(F)c2)C(=O)N1` (stereo not drawn) [Compound 64, 2-(6,7-dihydro-5H-pyrrolo[1,2-c]imidazol-1-yl)-2-[6-[6-[4-[2-[4-[4-[(2,6-dioxo-3-piperidyl)amino]-2-fluoro-phenyl]-1-piperidyl]acetyl]piperazin-1-yl]-3-pyridyl]-4-fluoro-indazol-2-yl]-N-thiazol-2-yl-acetamide]: the DC50 is 0.137 µM.
In turn, `O=C1CCC(Nc2ccc(C3CCN(CC(=O)N4CCN(c5ccc(-c6cc(F)c7cn(C(C(=O)Nc8nccs8)c8ncn9c8CCC9)nc7c6)cn5)CC4)CC3)cc2)C(=O)N1` (stereo not drawn) [Compound 65, 2-(6,7-dihydro-5H-pyrrolo[1,2-c]imidazol-1-yl)-2-[6-[6-[4-[2-[4-[4-[(2,6-dioxo-3-piperidyl)amino]phenyl]-1-piperidyl]acetyl]piperazin-1-yl]-3-pyridyl]-4-fluoro-indazol-2-yl]-N-thiazol-2-yl-acetamide] registered a 50% degradation concentration (DC50) of 0.036 µM.
The compound `O=C1CCC(Nc2cc(F)c(N3CCC(O)(CC(=O)N4CCC5(CC4)CN(c4ccc(-c6cc(F)c7c(c6)C(=O)N(C(C(=O)Nc6nccs6)c6ncn8c6CCC8)C7)cc4)C5)CC3)c(F)c2)C(=O)N1` (stereo not drawn) [Compound 137, 2-(6,7-dihydro-5H-pyrrolo[1,2-c]imidazol-1-yl)-2-[6-[4-[7-[2-[1-[4-[[2,6-dioxo-3-piperidyl]amino]-2,6-difluoro-phenyl]-4-hydroxy-4-piperidyl]acetyl]-2,7-diazaspiro[3.5]nonan-2-yl]phenyl]-4-fluoro-1-oxo-isoindolin-2-yl]-N-thiazol-2-yl-acetamide] displayed a DC50 (class symbols) of 0.05 to 0.15 µM.
For the compound `O=C1CCC(Nc2cc(F)c(N3CCC(O)(CC(=O)N4CC5(C4)CN(c4ccc(-c6cc(F)c7c(c6)C(=O)N(C(C(=O)Nc6nccs6)c6ncn8c6CCC8)C7)cc4)C5)CC3)c(Cl)c2)C(=O)N1` (stereo not drawn) [Compound 145, 2-[6-[4-[2-[2-[1-[2-chloro-4-[[2,6-dioxo-3-piperidyl]amino]-6-fluoro-phenyl]-4-hydroxy-4-piperidyl]acetyl]-2,6-diazaspiro[3.3]heptan-6-yl]phenyl]-4-fluoro-1-oxo-isoindolin-2-yl]-2-(6,7-dihydro-5H-pyrrolo[1,2-c]imidazol-1-yl)-N-thiazol-2-yl-acetamide], the half-maximal degradation concentration (DC50) (class symbols) was in the range of 0.05 to 0.15 µM.
